In general, melting point refers to the temperature, or range, at which the solid turns liquid.

`Cc1ccnc(C)c1O` came in with a melting point of 105 to 106 °C.

In turn, `COc1c(N2C[C@]3(C)CC[C@]3(N)C2)c(F)cc2c(=O)c(C(=O)O)cn([C@@H]3C[C@@H]3F)c12` yielded a melting point of 123 to 125 °C.

For the molecule `Cc1cc(-c2cc(C(F)(F)F)nc(-n3cnc(-c4ccc(S(N)(=O)=O)s4)c3)n2)ccc1C(F)(F)F`, the melting point is 260 °C.

Regarding `COC(=O)c1c(C(=O)OC)c2n(c1C)Cc1[nH]c3ccccc3c1C2`, the melting point was 252 to 253 °C.

With `COC(=O)CCCc1cc2cc(C(F)(F)F)ccc2n1S(=O)(=O)c1ccc2nc(C)oc2c1`, the melting point is 78 to 82 °C.

As for `CCOC(=O)C(C#N)(CCCN(C)CCc1ccc(OC)c(OC)c1)c1ccc(OC)c(OC)c1` (centres undefined), the melting point lay in the range of 77 to 78 °C.

As to `CC(=O)Nc1cc(Br)ccc1S(C)(=O)=O`, the melting point was 157 to 160 °C.

For the molecule `Cc1nn(C)c(=O)n1-c1ccc(N)cc1`, the melting point came out at 160 °C.

In the case of `Cc1c(C(=O)c2cnn(C(C)(C)C)c2O)ccc(S(C)(=O)=O)c1I`, the melting point lay within 171 to 172 °C.

As for `COC(=O)c1cc(OC)c([N+](=O)[O-])cc1NC(C)=O`, the melting point lay in the range of 141 to 143 °C.

`CCOC(=O)COc1c(C=O)cccc1OC` showed a melting point of 75.1 to 76.2 °C.

On to `CC#CCOc1ccc(SC(CCCCCC)C(=O)O)cc1` (centres undefined), for which the melting point was found to be 125 °C.

`c1ccc(Sc2cc(Sc3ccccc3)ncn2)cc1`: the melting point worked out at 117 °C.

`CCCCCc1cc2c(nc(O)n2[C@@H](C)c2ccccc2)c(N)n1` returned a melting point of 147 to 148 °C.

As for `COc1ccc(/C=N/N2CCCCC2)cc1OC1CCCC1`, the melting point is 81 to 82 °C.

Molecule `O=c1oc2c(O)cccc2c(O)c1-c1ccccc1` displayed a melting point of 220 °C.

`COc1ccc2c(c1)N(C(C)=O)c1cccc(SC)c1S2` came in with a melting point of 106 to 108 °C.

The molecule `Cc1nnc(O[Si](C)(C)C)nc1O[Si](C)(C)C` showed a melting point of 43 °C.

On to `CC(CN(C)C)Oc1ccccc1CC(=O)N1CC2C(C1)C(c1ccccc1)(c1ccccc1)CCS2=O` (racemic), for which the melting point turned out to be 150 °C.

`Cn1c(COc2ccc(CC3SC(=O)N(C(c4ccccc4)(c4ccccc4)c4ccccc4)C3=O)cc2)nc2cncnc21` (centres undefined) showed a melting point of 55 to 65 °C.

For `Cc1nn(C)c(O)c1C(=O)c1c(Cl)cccc1Cl`, the melting point was found to be 250 °C.

With `N#CNC(=NCCN1CCC(C2(c3ccc(F)cc3)OCCO2)CC1)N1CCCCC1`, the melting point fell in the range of 155 to 157 °C.

`CC1(C)OCC(CN2C(=O)C3(COc4cc5c(cc43)OCCO5)c3ccccc32)O1` (centres undefined) displayed a melting point of 55 to 57 °C.

`CON(c1ccc([N+](=O)[O-])cc1F)S(=O)(=O)c1ccc(Cl)c(C(F)(F)F)c1`: the melting point was in the range of 104 to 106 °C.

Turning to `FC(F)Sc1nnc(-c2ccccn2)s1`, the melting point lay in the range of 90 to 92 °C.

Molecule `Cn1cc(C=CC(=O)Nc2ccc(O)cc2)c([N+](=O)[O-])n1` came in with a melting point of 290 to 293 °C.

Molecule `N=c1sc2cc(OC(F)(F)F)ccc2n1CCSCc1ccccn1` came in with a melting point of 125 °C.

`CC(C)(C)NS(=O)(=O)Cc1cc(Br)c(NC(=O)C(F)(F)F)c(Br)c1` displayed a melting point of 166 to 167 °C.

The molecule `N#CC(=NNC(=N)N)c1cccc(Cl)c1Cl` gave a melting point of 221 to 222 °C.

For `COC(=O)C(=O)O[C@H]1C[C@@H](C(=O)OC)[C@]2(C)CC[C@H]3C(=O)O[C@H](c4ccoc4)C[C@]3(C)[C@H]2C1=O`, the melting point was in the range of 241 to 244 °C.

The molecule `Cc1c(Cl)cc(C(=O)C(O)CC(=O)O)cc1Cl` (centres undefined) showed a melting point of 114 to 118 °C.

Regarding `COc1ccc(-c2cc(C#N)c[nH]2)c(OC)c1`, the melting point lay within 129 to 130 °C.

Take `O=C(O)c1cccc(C(=O)O)c1[N+](=O)[O-]`: the melting point is 100 to 101 °C.

As to `COc1ccc(Cn2c(=O)c(NN)nc3ccc4ccccc4c32)c(OC)c1`, the melting point was 182 to 183 °C.

`O=C(NC/C=C\COc1cc(CN2CCCCC2)ccn1)c1cc(-c2ccccc2)on1` yielded a melting point of 105 to 106 °C.

Consider `N[C@@H](CO)C(=O)Nn1cccc1`, for which the melting point is 135 to 137 °C.

Turning to `CCCNc1nc(N)nc(C)c1/C=C/C(C)(C)c1ccc(C(F)(F)F)cc1`, the melting point was in the range of 140 to 141 °C.

As to `O=S(=O)(c1ccc(Cl)cc1)C1(c2nnn(Cc3ccccc3)n2)CCCCC1`, the melting point lay in the range of 133 to 134 °C.

The molecule `COc1cc(COc2nn(-c3ccccc3)cc2CCC(=O)O)ccc1OCc1nc(-c2ccco2)oc1C` gave a melting point of 161 to 162 °C.

In turn, `COc1cccc2c1CCc1c-2nc2ccccc2c1N` registered a melting point of 126 to 129 °C.

Molecule `c1ccc(-c2noc(-c3cc4c(cn3)[nH]c3ccccc34)n2)cc1` had a melting point of 279 to 283 °C.

In the case of `COc1cc(S(=O)(=O)CCO)ccc1[N+](=O)[O-]`, the melting point lay in the range of 95 to 96 °C.

Consider `COc1ccc(C(=O)CCCCCN2CCC(CNC(=O)c3cc(Cl)c(N)cc3OC)CC2)cc1F`, for which the melting point lay within 112 to 113 °C.

`O=C1Nc2ccc(-c3ccc(F)c(Cl)c3)cc2C12CCCC2`: the melting point is 202 to 204 °C.

As to `CC(=O)Oc1c(C=C(C#N)C#N)n(C(C)=O)c2ccccc12`, the melting point lay within 250 to 252 °C.

Molecule `Brc1csc2cc(OCc3ccccc3)ccc12` registered a melting point of 68 °C.

On to `Cc1cc(C)c(NC(=O)N(Cc2cc3ccccc3c3ccccc23)C2CCCCC2)c(C)c1`, for which the melting point lay in the range of 125 to 128 °C.

With `CCc1c(C(=O)c2cc(C)cc(C)c2)n(C/C=C/COC)c(=O)[nH]c1=O`, the melting point is 142 to 143 °C.

For the molecule `COC(=O)/C(C)=C/COc1cccc(O)c1`, the melting point was in the range of 79 to 81 °C.

The molecule `N#Cc1ncn2c1[C@@H]1CCN1C(=O)c1ccccc1-2` had a melting point of 232 to 234 °C.

Molecule `COC(=O)c1ccc(C=Cc2ccc(-c3cc4cc(Cl)ccc4o3)cc2)cc1` yielded a melting point of 264 to 266 °C.

In the case of `CC(F)(F)c1cccc(C[C@@H](NC(=O)c2cccc3c2C=CCCC3)[C@@H](O)c2ccc(F)cc2)c1` (racemic), the melting point was 170 to 171 °C.

With `CC(=O)N1CCC(c2nn(-c3ccc(F)cc3)c3ccccc23)CC1`, the melting point lay within 99 to 101 °C.

With `O=c1c2cc(F)ccc2nc(NCc2ccccn2)n1-c1ccccc1Cl`, the melting point lay in the range of 156 to 158 °C.

As to `O=C(NO)c1ccc(N2CCCC2)cn1`, the melting point is 220 to 225 °C.

The molecule `CS(=O)(=O)c1ccc(-c2cnn(Cc3ccncc3)c(=O)c2-c2ccc(F)cc2)cc1` came in with a melting point of 153 to 156 °C.

On to `O=C(c1ccc(-c2cc(Cl)ccc2O)cc1C(F)(F)F)N1CCCC1`, for which the melting point was in the range of 220 to 221 °C.

On to `CC(=O)OCC1OC(n2cnc3c(-n4cnc(-c5ccccc5)c4-c4ccccc4)nc(Cl)nc32)C(OC(C)=O)C1OC(C)=O` (centres undefined), for which the melting point is 146 °C.

With `O=CN1C(=O)NC(=O)C12C(=O)N(Cc1ccc(Cl)c(Cl)c1)c1ccccc12` (centres undefined), the melting point lay within 244 to 246 °C.

`Cc1cc(I)sc1COCP(=O)(OC(C)C)OC(C)C` gave a melting point of 39 to 40 °C.

`CP(=O)(O)CC(=O)CN` returned a melting point of 148 to 149 °C.

In the case of `CCCc1nc(-c2ccc(OCCCn3ccnc3)cc2)no1`, the melting point lay within 57 to 58 °C.

Take `COc1cc2c(cc1S(=O)(=O)c1ccc(OCc3ccc(Cl)cc3)cc1)CCN(C)CC2`: the melting point was 120 to 122 °C.

As for `CCn1ncnc1COc1nn2c(-c3ccc(F)cc3)nncc2c1C(C)(C)C`, the melting point is 190 °C.

`C1=CCC(C2CCCCCCC2)N=NC(C2CCCCCCC2)CC=CCC1` (centres undefined): the melting point was in the range of 62 to 63 °C.

The molecule `Cc1ccc(-c2cc(C(O)/C=C/c3ccc(C(=O)O)cc3)cc3c2C(C)(C)CCC3(C)C)cc1` (centres undefined) returned a melting point of 179 °C.

`O=C(c1cc(C(F)(F)F)cc(C(F)(F)F)c1)N1CCOc2nccc(-c3ccccc3)c2C1` registered a melting point of 179 to 180 °C.

Take `Cn1ncc2c1CC(C)(C)c1cnn(C)c1-2`: the melting point was 105 to 108 °C.

In the case of `C[Si](C)(C)C#Cc1ccnc(Cl)n1`, the melting point fell in the range of 51 to 54 °C.

For the molecule `COc1nc(N(C)C)nc(CCCCCCCCCCO)c1O`, the melting point lay in the range of 104 to 105 °C.

The molecule `CCOC(=O)CCc1ccc2oc(Cc3ccc4ccccc4c3)nc2c1` registered a melting point of 81 to 82 °C.

The molecule `O=[N+]([O-])c1ccccc1Nc1ccc(Nc2nccs2)cc1` showed a melting point of 195 to 197 °C.

The molecule `CN1c2ccc(C#CCO)cc2C(O)=C(C(=O)NCc2ccc(Cl)cc2)S1(=O)=O` displayed a melting point of 167 to 168 °C.

In turn, `CCNc1nc2ccccc2n(-c2ccc(Cl)cc2)c1=O` showed a melting point of 192 to 195 °C.

The molecule `Cc1onc(C(=O)c2ccc(Cl)cc2)c1[N+](=O)[O-]` registered a melting point of 173 to 175 °C.

Molecule `Cc1cc(C)c(C#N)c(SSc2ccc([N+](=O)[O-])cc2C(Cl)(Cl)Cl)n1` had a melting point of 132 °C.

`CCCCCCCCCCCCOS(=O)(=O)NC(=O)Nc1c(C(C)C)cccc1C(C)C` displayed a melting point of 112 to 115 °C.

`COC(=O)[C@H](Cc1c(Br)[nH]c2cc(Br)c(OC)cc12)NC(C)=O` displayed a melting point of 174 to 175 °C.

As for `Cc1cccc(-c2nn(C)cc2-c2ccc(F)c(-c3ccc(S(C)(=O)=O)cc3)c2)n1`, the melting point lay in the range of 66 to 67 °C.

Turning to `CCCCCCCCC(CO)CO`, the melting point is 48 to 51 °C.

In the case of `CC1(c2cc(/C=C/c3ccc(C(=O)O)cc3)ccc2O)CCCCC1`, the melting point is 229 °C.

Consider `Cc1oc(-c2ccccc2)nc1COc1ccc(COc2nn(C)cc2CC(=O)O)cc1`, for which the melting point was 133 to 134 °C.

`NC(=O)Cn1c(-c2ccccc2)nc2cccnc21` returned a melting point of 226 to 227 °C.

For `N#Cc1c(N2CCc3ccccc3CC2)nc(=O)[nH]c1OCC(F)(F)F`, the melting point was in the range of 196 to 198 °C.

For the molecule `CN1C(=O)C2C3C=CC(C3)C2(c2ccc3c(c2)OCO3)C1=O` (centres undefined), the melting point lay in the range of 116 to 118 °C.

`CC(C)(C)c1ccc(O[C@@H]2CCNC[C@H]2O)cc1` (relative stereo) returned a melting point of 138 to 140 °C.

In turn, `CCOC(=O)C(OCC)(OCC)C(=O)c1cccc2snnc12` displayed a melting point of 123 to 125 °C.

In turn, `CCCc1c(OCCCOc2ccc(CC(=O)O)cc2F)ccc(C(C)=O)c1O` displayed a melting point of 121 to 123 °C.

As for `CC1(C)CCC(C)(C)c2nc3c(ccc4c(-c5ccc(C(=O)O)cc5)cn(Cc5cccnc5)c43)nc21`, the melting point was 286 to 288 °C.
